The text below walks through data of patent publication US4675403A, “3-Aminoalkyl derivatives of 5,5-disubstituted hydantoins with psychotropic activity” (American Home Products Corporation, priority 1985, dated 1987).

Structures can show the parent of a compound that is named as a salt. Where two headings read alike, the source gives them in different places.

Test [1] addresses limbic D-2 dopamine receptor (Rattus norvegicus, UniProt P61169). Nature of the test: inhibition of limbic D-2 dopamine receptor binding (3H-spiroperidol). To be noted: for inhibition at 10 µM: read-out: Limbic D-2 Binding, inhibition at 10 μM. Set-up: species or system rats. The procedure:
The test is carried out as follows:

Test [2] relates to conditioned avoidance (shelf-jump response). Put plainly: conditioned avoidance (shelf-jump response) test. To be noted: Rattus norvegicus, ip, read-out: AB50.
Procedure: This test is carried out as follows:
Male CD rats (Charles River) maintained at approximately 400-450 gm body weight are used. […] A moveable wall, controlled by a motor, determines whether the rat has access to the shelf at any time during the experiment. The experimental chamber also contains a house light and sonalert. A steel grid floor in the main chamber is wired for presentation of electric shock. Each trial consists of a fifteen-second warning tone (conditioned stimulus), continuing for an additional fifteen seconds accompanied by electric shock, (unconditioned stimulus). A response (jumping onto the exposed shelf of the upper chamber) occurring during the initial fifteen-second warning tone is considered an avoidance response, while a response occurring during shock delivery is considered an escape response. […]
The following experimental parameters are recorded by computer: (1) the number of avoidance responses, (2) the number of escape responses, and (3) the number of trials in which no response occurred.
Response counts are summed over all subjects at a given dose. […] This number is expressed as a percentage of the total trials. Control performance is arbitrarily assigned a value of 100% for avoidance and the dose calculated to produce a 50% block in avoidance responding (AB50) is obtained from a dose-effect regression line fitted by the method of least squares.
Where [3] appears, read: rat limbic tissue, 0.3 nM 3H-spiroperidol.

The term Ki denotes a measure of affinity in units of concentration, obtained from inhibition or displacement. Low values mean a stronger hold on the target, high ones a looser hold on the target. For orientation: inhibition means the percentage by which the read-out fell short of the control.

Chain of limbic D-2 dopamine receptor (P61169 whole entry): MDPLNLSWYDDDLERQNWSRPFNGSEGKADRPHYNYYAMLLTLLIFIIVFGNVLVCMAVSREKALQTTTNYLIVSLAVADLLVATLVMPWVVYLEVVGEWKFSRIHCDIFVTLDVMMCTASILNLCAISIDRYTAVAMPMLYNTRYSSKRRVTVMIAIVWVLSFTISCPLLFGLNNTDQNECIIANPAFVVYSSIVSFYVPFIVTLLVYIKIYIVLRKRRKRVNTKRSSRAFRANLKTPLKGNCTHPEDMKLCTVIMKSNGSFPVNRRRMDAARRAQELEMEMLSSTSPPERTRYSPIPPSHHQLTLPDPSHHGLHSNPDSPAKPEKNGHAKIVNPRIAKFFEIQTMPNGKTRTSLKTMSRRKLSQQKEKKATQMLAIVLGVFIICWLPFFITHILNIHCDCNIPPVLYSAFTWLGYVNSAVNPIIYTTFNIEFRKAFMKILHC

In test [1] (rat limbic tissue, 0.3 nM 3H-spiroperidol, Table 1), `O=C1NC2(CC3CCC2C3)C(=O)N1CCCCN1CCN(c2ncccn2)CC1` (centres unmarked) [Example 2, 1-[4-[4-(2-Pyrimidinyl)-1-piperazinyl]butyl]spiro[bicyclo[2.2.1]heptane-2,4'-imidazolidine]-2',5'-dione, dihydrochloride] yielded a Ki of 2000 nM. Moreover, the ED50 in test [2] is 33.3 mg/kg.
In the case of `Cl.Cl.O=C1CNC(=O)N1CCCCN1CCN(c2ncccn2)CC1` [Example 3, 3-[4-[4-(2-Pyrimidinyl)-1-piperazinyl]butyl]-2,4-imidazolidinedione, dihydrochloride], the inhibition at 10 µM in test [1] turned out to be 24%. Also, the ED50 in test [2] stood at 45.8 mg/kg.
In the case of `O=C1NC2(CCCCC2)C(=O)N1CCCCN1CCN(c2ncccn2)CC1` [Example 4, 5,5-Pentamethylene-3-[4-[4-(2-pyrimidinyl)-4-piperazinyl]butyl]-2,4-imidazolidinedione, dihydrochloride], the inhibition at 1 µM in test [1] (setting [3]) is 10%.
On the same count and under the same terms, for `CC1(C)NC(=O)N(CCCCN2CCN(c3ncccn3)CC2)C1=O` [Example 5, 5,5-Dimethyl-3-[4-[4-(2-pyrimidinyl)-4-piperazinyl]butyl]-2,4-imidazolidinedione, hydrochloride] the value was 5%.
For the compound `O=C1NC2(CCCC2)C(=O)N1CCCCN1CCN(c2ncccn2)CC1` [Example 7, 5,5-Tetramethylene-3-[4-[4-(2-pyrimidinyl)-4-piperazinyl]butyl]-2,4-imidazolidinedione, dihydrochloride], the inhibition at 10 µM in test [1] (10 μM, rat limbic tissue, 0.3 nM 3H-spiroperidol) is 51%.
On to `O=C1NC2(CCCC2)C(=O)N1CCCCN1CCC(O)(c2ccc(Cl)cc2)CC1` [Example 8, dihydrochloride], for which, in test [1], the inhibition at 10 µM was found to be 40%.
